Consider 24 compounds from patent US20140187548A1, “6 SUBSTITUTED IMIDAZOPYRAZINES FOR USE AS MPS-1 AND TKK INHIBITORS IN THE TREATMENT OF HYPERPROLIFERATIVE DISORDERS” (BAYER INTELLECTUAL PROPERTY GMBH, priority 2010, published 2014).

The target in the experiment is T1, human kinase Mps-1 (Homo sapiens, UniProt P33981).
T1 construct: N-terminally GST-tagged human full length recombinant Mps-1 kinase; GST (N); purchased Invitrogen, Karslruhe, Germany PV4071
T1 sequence (P33981 1-857): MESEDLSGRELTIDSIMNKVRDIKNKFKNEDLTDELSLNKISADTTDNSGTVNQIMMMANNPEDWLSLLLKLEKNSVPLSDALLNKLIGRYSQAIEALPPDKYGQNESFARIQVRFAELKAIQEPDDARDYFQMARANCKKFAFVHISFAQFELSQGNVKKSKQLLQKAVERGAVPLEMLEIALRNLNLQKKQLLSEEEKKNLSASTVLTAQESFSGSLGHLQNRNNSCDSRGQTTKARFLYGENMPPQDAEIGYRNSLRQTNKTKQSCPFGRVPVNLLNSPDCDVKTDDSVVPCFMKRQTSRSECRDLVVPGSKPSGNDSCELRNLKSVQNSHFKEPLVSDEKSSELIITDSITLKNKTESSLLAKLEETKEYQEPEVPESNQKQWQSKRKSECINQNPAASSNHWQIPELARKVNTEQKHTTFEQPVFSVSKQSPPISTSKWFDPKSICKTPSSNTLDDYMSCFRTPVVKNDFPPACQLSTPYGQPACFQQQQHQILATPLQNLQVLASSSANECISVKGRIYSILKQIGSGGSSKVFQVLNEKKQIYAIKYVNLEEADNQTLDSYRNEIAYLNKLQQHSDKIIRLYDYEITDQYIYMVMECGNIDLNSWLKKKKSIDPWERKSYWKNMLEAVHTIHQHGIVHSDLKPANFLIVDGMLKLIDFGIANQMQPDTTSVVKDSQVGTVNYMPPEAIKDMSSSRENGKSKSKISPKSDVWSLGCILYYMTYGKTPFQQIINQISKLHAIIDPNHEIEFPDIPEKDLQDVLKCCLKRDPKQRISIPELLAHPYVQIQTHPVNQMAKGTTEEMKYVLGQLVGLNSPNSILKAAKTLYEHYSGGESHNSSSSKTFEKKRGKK
The experiment is described as follows: Mps-1 kinase assay (TR-FRET). Type of experiment: biochemical. The settings on record: N-terminally GST-tagged human full length recombinant Mps-1; 10 μM ATP; 1 μM peptide substrate; 15 min pre-incubation; 60 min at 22° C. Here is the method:
The human kinase Mps-1 phosphorylates a biotinylated substrate peptide. Detection of the phosphorylated product is achieved by time-resolved fluorescence resonance energy transfer (TR-FRET) from Europium-labelled anti-phospho-Serine/Threonine antibody as donor to streptavidin labelled with cross-linked allophycocyanin (SA-XLent) as acceptor. Compounds are tested for their inhibition of the kinase activity.
N-terminally GST-tagged human full length recombinant Mps-1 kinase (purchased from Invitrogen, Karslruhe, Germany, cat. no PV4071) was used. As substrate for the kinase reaction a biotinylated peptide of the amino-acid sequence […] (C-terminus in amide form, purchased from Biosynthan GmbH, Berlin) was used.
The concentration of Mps-1 in the assay was adjusted to the activity of the enzyme lot and was chosen appropriate to have the assay in the linear range, typical enzyme concentrations were in the range of about 1 nM (final conc. in the 5 μl assay volume).
The resulting mixture was incubated 1 h at 22° C. to allow the binding of the phosphorylated peptide to the anti-phospho(Ser/Thr)-Europium-antibody. Subsequently the amount of phosphorylated substrate was evaluated by measurement of the resonance energy transfer from the Europium-labelled anti-phospho(Ser/Thr) antibody to the Streptavidin-XLent. Therefore, the fluorescence emissions at 620 nm and 665 nm after excitation at 350 nm was measured in a Viewlux TR-FRET reader (PerkinElmer LAS, Rodgau-Jügesheim, Germany). The “blank-corrected normalized ratio” (a Viewlux specific readout, similar to the traditional ratio of the emissions at 665 nm and at 622 nm, in which blank and Eu-donor crosstalk are subtracted from the 665 nm signal before the ratio is calculated) was taken as the measure for the amount of phosphorylated substrate.
(Time-resolved FRET reads energy transfer from a long-lived donor to a nearby acceptor.)
In the case of `O=C(NC1CC1)c1ccc(-c2cnc3c(NCC4CCC(C(F)(F)F)CC4)nc(-c4ccccc4)cn23)cc1` (mixture of isomers) [Example 2-86, N-cyclopropyl-4-[6-phenyl-8-([[4-(trifluoromethyl)cyclohexyl]methyl]amino)imidazo[1,2-a]pyrazin-3-yl]benzamide], the IC50 worked out at 12.4 nM.

For `CC(C)CNc1nc(-c2ccc(C(C)O)cc2)cn2c(-c3ccc(C(=O)NC4CC4)cc3)cnc12` (racemic) [Example 6-2, (RS)N-cyclopropyl-4-{6-[4-(1-hydroxyethyl)phenyl]-8-(isobutylamino)imidazo[1,2-a]pyrazin-3-yl}benzamide], the half-inhibitory concentration (IC50) is 1.1 nM.

Take `CC(C)CNc1nc(-c2cccc([N+](=O)[O-])c2)cn2c(-c3ccc(C(=O)NC4CC4)cc3)cnc12` [Example 1-2, N-cyclopropyl-4-{8-[(2-methylpropyl)amino]-6-(3-nitrophenyl)imidazo [1,2-a]pyrazin-3-yl} benzamide]: the concentration for half-maximal inhibition (IC50) is 5.5 nM.

As for `CC(C)CNc1nc(-c2ccc3c(c2)OCCO3)cn2c(-c3ccc(C(=O)NC4CC4)cc3)cnc12` [Example 1-3, N-cyclopropyl-4-{6-(2,3-dihydro-1,4-benzodioxin-6-yl)-8-[(2-methyl-propyl)amino]imidazo [1,2-a]pyrazin-3-yl} benzamide], the concentration for half-maximal inhibition (IC50) was 18.4 nM.

Consider `CC(C)CNc1nc(-c2cccc3ccccc23)cn2c(-c3ccc(C(=O)NC4CC4)cc3)cnc12` [Example 1-4, N-cyclopropyl-4-{8-[(2-methylpropyl)amino]-6-(naphthalen-1-yl)imidazo[1,2-a]pyrazin-3-yl}benzamide], for which the IC50 is 4.6 nM.

For the compound `CC(C)CNc1nc(-c2cccc(CO)c2)cn2c(-c3ccc(C(=O)NC4CC4)cc3)cnc12` [Example 1-5, N-cyclopropyl-4-{6-[3-(hydroxymethyl)phenyl]-8-[(2-methylpropyl)amino]imidazo[1,2-a]pyrazin-3-yl}benzamide], the concentration for half-maximal inhibition (IC50) came to 1.4 nM.

As to `CC(C)CNc1nc(-c2ccc(F)cc2)cn2c(-c3ccc(C(=O)NC4CC4)cc3)cnc12` [Example 1-6, N-cyclopropyl-4-{6-(4-fluorophenyl)-8-[(2-methylpropyl)amino]imidazo[1,2-a]pyrazin-3-yl}benzamide], the half-maximal inhibitory concentration (IC50) amounted to 2.3 nM.

As to `Cc1ccc(-c2cn3c(-c4ccc(C(=O)NC5CC5)cc4)cnc3c(NCC(C)C)n2)cc1` [Example 1-7, N-cyclopropyl-4-{6-(4-methylphenyl)-8-[(2-methylpropyl)amino]imidazo[1,2-a]pyrazin-3-yl}benzamide], the concentration for half-maximal inhibition (IC50) is 5.7 nM.

On to `Cc1cccc(-c2cn3c(-c4ccc(C(=O)NC5CC5)cc4)cnc3c(NCC(C)C)n2)c1` [Example 1-8, N-cyclopropyl-4-{6-(3-methylphenyl)-8-[(2-methylpropyl)amino]imidazo[1,2-a]pyrazin-3-yl}benzamide], for which the IC50 worked out at 4.9 nM.

For `Cc1cccc(-c2cn3c(-c4ccc(C(=O)NC5CC5)cc4)cnc3c(NCC(C)C)n2)c1C` [Example 1-9, N-cyclopropyl-4-{6-(2,3-dimethylphenyl)-8-[(2-methylpropyl)amino]imidazo[1,2-a]pyrazin-3-yl}benzamide], the half-maximal inhibitory concentration (IC50) is 2.4 nM.

Turning to `CC(C)CNc1nc(-c2cc(Cl)cc(Cl)c2)cn2c(-c3ccc(C(=O)NC4CC4)cc3)cnc12` [Example 1-10, N-cyclopropyl-4-{6-(3,5-dichlorophenyl)-8-[(2-methylpropyl)amino]imidazo[1,2-a]pyrazin-3-yl}benzamide], the IC50 amounted to 1110 nM.

For the compound `COC(=O)c1cccc(-c2cn3c(-c4ccc(C(=O)NC5CC5)cc4)cnc3c(NCC(C)C)n2)c1` [Example 1-11, methyl 3-{3-[4-(cyclopropyl-carbamoyl)phenyl]-8-[(2-methylpropyl)amino]imidazo[1,2-a]pyrazin-6-yl}benzoate], the IC50 worked out at 2.3 nM.

For `Cc1cc(-c2cn3c(-c4ccc(C(=O)NC5CC5)cc4)cnc3c(NCC(C)C)n2)cc(C)c1O` [Example 1-12, N-cyclopropyl-4-{6-(4-hydroxy-3,5-dimethyl-phenyl)-8-[(2-methyl-propyl)amino]imidazo [1,2-a]pyrazin-3-yl} benzamide], the half-inhibitory concentration (IC50) stood at 3.8 nM.

Regarding `COc1cccc(-c2cn3c(-c4ccc(C(=O)NC5CC5)cc4)cnc3c(NCC(C)C)n2)c1F` [Example 1-13, N-cyclopropyl-4-{6-(2-fluoro-3-methoxyphenyl)-8-[(2-methylpropyl)amino]imidazo[1,2-a]pyrazin-3-yl}benzamide], the 50% inhibitory concentration (IC50) amounted to 7 nM.

For the compound `CC(=O)Nc1ccccc1-c1cn2c(-c3ccc(C(=O)NC4CC4)cc3)cnc2c(NCC(C)C)n1` [Example 1-14, 4-{6-[2-(acetylamino)phenyl]-8-[(2-methyl-propyl)amino]imidazo [1,2-a]pyrazin-3-yl}-N-cyclopropylbenzamide], the IC50 worked out at 11.2 nM.

Consider `CC(C)CNc1nc(-c2cccc(NS(C)(=O)=O)c2)cn2c(-c3ccc(C(=O)NC4CC4)cc3)cnc12` [Example 1-15, N-cyclopropyl-4-(8-[(2-methylpropyl)amino]-6-{3-[(methylsulfonyl)amino]phenyl}imidazo [1,2-a]pyrazin-3-yl) benzamide], for which the half-maximal inhibitory concentration (IC50) was 1.8 nM.

As to `CC(C)CNc1nc(-c2ccc(C(=O)N(C)C)cc2)cn2c(-c3ccc(C(=O)NC4CC4)cc3)cnc12` [Example 1-16, 4-{3-[4-(cyclopropyl-carbamoyl)phenyl]-8-[(2-methylpropyl)amino]imidazo[1,2-a]pyrazin-6-yl}-N,N-dimethyl-benzamide], the 50% inhibitory concentration (IC50) was determined as 2.7 nM.

For `COc1cccc(-c2cn3c(-c4ccc(C(=O)NC5CC5)cc4)cnc3c(NCC(C)C)n2)c1OC` [Example 1-17, N-cyclopropyl-4-{6-(2,3-dimethoxyphenyl)-8-[(2-methylpropyl)amino]imidazo[1,2-a]pyrazin-3-yl}benzamide], the IC50 stood at 14.4 nM.

For `CSc1ccc(-c2cn3c(-c4ccc(C(=O)NC5CC5)cc4)cnc3c(NCC(C)C)n2)cc1` [Example 1-18, N-cyclopropyl-4-{8-[(2-methylpropyl)amino]-6-[4-(methylsulfanyl)phenyl]imidazo[1,2-a]pyrazin-3-yl}benzamide], the IC50 came to 8.5 nM.

Turning to `Cc1ccccc1-c1cn2c(-c3ccc(C(=O)NC4CC4)cc3)cnc2c(NCC(C)C)n1` [Example 1-19, N-cyclopropyl-4-{6-(2-methylphenyl)-8-[(2-methylpropyl)amino]imidazo[1,2-a]pyrazin-3-yl}benzamide], the half-maximal inhibitory concentration (IC50) turned out to be 1.5 nM.

`CC(C)CNc1nc(-c2cccc3ncccc23)cn2c(-c3ccc(C(=O)NC4CC4)cc3)cnc12` [Example 1-20, N-cyclopropyl-4-{8-[(2-methylpropyl)amino]-6-(quinolin-5-yl)imidazo [1,2-a]pyrazin-3-yl} benzamide]: the IC50 stood at 1 nM.

`COc1cc(OC)cc(-c2cn3c(-c4ccc(C(=O)NC5CC5)cc4)cnc3c(NCC(C)C)n2)c1` [Example 1-21, N-cyclopropyl-4-{6-(3,5-dimethoxyphenyl)-8-[(2-methylpropyl)amino]imidazo[1,2-a]pyrazin-3-yl}benzamide]: the IC50 was determined as 19 nM.

`CC(C)CNc1nc(-c2cccc3[nH]ccc23)cn2c(-c3ccc(C(=O)NC4CC4)cc3)cnc12` [Example 1-22, N-cyclopropyl-4-{6-(1H-indol-4-yl)-8-[(2-methyl-propyl)amino]imidazo [1,2-a]pyrazin-3-yl} benzamide]: the IC50 is 2.6 nM.

`CC(C)CNc1nc(-c2ccc3cc[nH]c3c2)cn2c(-c3ccc(C(=O)NC4CC4)cc3)cnc12` [Example 1-23, N-cyclopropyl-4-{6-(1H-indol-6-yl)-8-[(2-methyl-propyl)amino]imidazo [1,2-a]pyrazin-3-yl} benzamide]: the half-maximal inhibitory concentration (IC50) stood at 21 nM.

One may read the IC50 as the concentration that gives 50% inhibition.
